# In US11384055B2 (BIOMARIN PHARMACEUTICAL INC., priority 2017, dated 2022):
# Molecular target: T1, Human GO (Homo sapiens, UniProt Q9UJM8)
# T1 construct: purchased Novus Biologicals NBP1-72412
# T1 sequence (Q9UJM8 1-370): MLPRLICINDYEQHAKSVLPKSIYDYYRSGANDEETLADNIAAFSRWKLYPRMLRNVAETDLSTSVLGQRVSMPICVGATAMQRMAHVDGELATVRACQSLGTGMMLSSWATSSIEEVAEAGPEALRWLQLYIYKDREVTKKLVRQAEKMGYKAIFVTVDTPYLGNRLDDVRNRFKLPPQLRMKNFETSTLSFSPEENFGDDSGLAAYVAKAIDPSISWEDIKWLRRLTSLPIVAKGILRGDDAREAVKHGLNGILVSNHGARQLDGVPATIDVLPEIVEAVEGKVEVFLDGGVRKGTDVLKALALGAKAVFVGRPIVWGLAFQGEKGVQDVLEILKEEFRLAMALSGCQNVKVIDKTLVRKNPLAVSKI
# Test: GO enzymatic assay (coupled fluorescence/HRP assay, glycolate substrate)
# Type: biochemical
# Details: Table 4; read-out: Range (range of IC50 values calculated from the enzymatic assays)
# Summary of the method: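 Coupled HRP/fluorescence read-out of glycolate oxidation by human GO in 50 mM potassium phosphate buffer (pH 7). Inhibitors added across a concentration range.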
row,Structure (SMILES),IC50 [nM]
1,"O=C(O)c1[nH]nnc1O[C@H]1CC[C@@H](c2ccc(-c3ccn[nH]3)c(CO)c2)CC1 [Example 467, 4-(((cis)-4-(3-(hydroxymethyl)-4-(1H-pyrazol-5-yl)phenyl)cyclohexyl)oxy)-1H-1,2,3-triazole-5-carboxylic acid 2,2,2-trifluoroacetate]",< 100
2,"CN1CCN(c2ccc([C@H]3CC[C@H](Oc4nn[nH]c4C(=O)O)CC3)cc2)CC1 [Example 468, 4-(((trans)-4-(4-(4-methylpiperazin-1-yl)phenyl)cyclohexyl)oxy)-1H-1,2,3-triazole-5-carboxylic acid 2,2,2-trifluoroacetate]",< 100
3,"CC(C)(O)Cn1ccc(-c2ccc([C@H]3CC[C@H](Oc4nn[nH]c4C(=O)O)CC3)cc2)n1 [Example 469, 4-(((trans)-4-(4-(1-(2-hydroxy-2-methylpropyl)-1H-pyrazol-3-yl)phenyl)cyclohexyl)oxy)-1H-1,2,3-triazole-5-carboxylic acid 2,2,2-trifluoroacetate]",< 100
4,"O=C(O)c1[nH]nnc1O[C@H]1CC[C@H](c2ccc(-c3ccnn3CC3(O)CCCCC3)cc2)CC1 [Example 471, 4-(((trans)-4-(4-(1-((1-hydroxycyclohexyl)methyl)-1H-pyrazol-5-yl)phenyl)cyclohexyl)oxy)-1H-1,2,3-triazole-5-carboxylic acid 2,2,2-trifluoroacetate]",< 100
5,"NCCCOc1ccc([C@H]2CC[C@H](Oc3nn[nH]c3C(=O)O)CC2)cc1 [Example 472, 4-(((trans)-4-(4-(3-aminopropoxy)phenyl)cyclohexyl)oxy)-1H-1,2,3-triazole-5-carboxylic acid 2,2,2-trifluoroacetate]",< 100
6,"CCC(CC)c1cc(-c2ccc([C@H]3CC[C@H](Oc4nn[nH]c4C(=O)O)CC3)cc2)[nH]n1 [Example 473, 4-(((trans)-4-(4-(3-(pentan-3-yl)-1H-pyrazol-5-yl)phenyl)cyclohexyl)oxy)-1H-1,2,3-triazole-5-carboxylic acid]",< 100
7,"CNCCCOc1ccc([C@H]2CC[C@H](Oc3nn[nH]c3C(=O)O)CC2)cc1 [Example 474, 4-(((trans)-4-(4-(3-(methylamino)propoxy)phenyl)cyclohexyl)oxy)-1H-1,2,3-triazole-5-carboxylic acid 2,2,2-trifluoroacetate]",< 100
8,"CN(C)CCCOc1ccc([C@H]2CC[C@H](Oc3nn[nH]c3C(=O)O)CC2)cc1 [Example 478, 4-(((trans)-4-(4-(3-(dimethylamino)propoxy)phenyl)cyclohexyl)oxy)-1H-1,2,3-triazole-5-carboxylic acid 2,2,2-trifluoroacetate]",< 100

# Second part, the compound after the results:
row,IC50 [nM],Structure (SMILES)
1,< 100,"CCC(O)(CC)Cn1nccc1-c1ccc([C@H]2CC[C@H](Oc3nn[nH]c3C(=O)O)CC2)cc1 [Example 479, 4-(((trans)-4-(4-(1-(2-ethyl-2-hydroxybutyl)-1H-pyrazol-5-yl)phenyl)cyclohexyl)oxy)-1H-1,2,3-triazole-5-carboxylic acid]"
2,< 100,"CC(C)(O)Cn1nccc1-c1ccc([C@H]2CC[C@H](Oc3nn[nH]c3C(=O)O)CC2)cc1 [Example 480, 4-(((trans)-4-(4-(1-(2-hydroxy-2-methylpropyl)-1H-pyrazol-5-yl)phenyl)cyclohexyl)oxy)-1H-1,2,3-triazole-5-carboxylic acid]"
3,< 100,"O=C(O)c1[nH]nnc1O[C@H]1CC[C@H](c2ccc(Cl)c(C3CCC3)c2)CC1 [Example 482, 4-(((trans)-4-(4-chloro-3-cyclobutylphenyl)cyclohexyl)oxy)-1H-1,2,3-triazole-5-carboxylic acid]"
4,< 100,"O=C(O)c1[nH]nnc1O[C@H]1CC[C@H](c2ccc(OC(F)(F)F)c(C3CCC3)c2)CC1 [Example 484, 4-(((trans)-4-(3-cyclobutyl-4-(trifluoromethoxy)phenyl)cyclohexyl)oxy)-1H-1,2,3-triazole-5-carboxylic acid]"
5,< 100,"COCCc1cc(-c2ccc([C@H]3CC[C@H](Oc4nn[nH]c4C(=O)O)CC3)cc2)[nH]n1 [Example 485, 4-(((trans)-4-(4-(3-(2-methoxyethyl)-1H-pyrazol-5-yl)phenyl)cyclohexyl)oxy)-1H-1,2,3-triazole-5-carboxylic acid 2,2,2-trifluoroacetate]"
6,< 100,"O=C(O)c1[nH]nnc1CO[C@H]1CC[C@H](c2cc(Cl)cc(Cl)c2)CC1 [Example 486, 4-((((trans)-4-(3,5-dichlorophenyl)cyclohexyl)oxy)methyl)-1H-1,2,3-triazole-5-carboxylic acid]"
